Experimental findings from ChEMBL document CHEMBL3507680, “University of Dundee, Gates Library screen for HepG2 cell viability” are described below.

The data set in a line: Human HepG2 cell viability assay in 384 well format. Type of data set: toxicity, cell-based. Further details: dose 125 nL, time 70.5 hour; cytotoxicity at 70.5 h: concentration not given beside the values. The note with it: HepG2 cells, read-out: Inhibition.
`C[S+]([O-])c1ccc(NC(=O)CC2=CCCCC2)cc1` (stereo not drawn): the cytotoxicity at 70.5 h was -3.55%.
As for `CC(=O)Nc1ccc(S(=O)(=O)N2CCOC(Cn3ccnc3)C2)cc1` (stereo not drawn), the figure is -4.79%; as for `CC(NC(=O)Cn1ccc(=O)n(C)c1=O)c1ccccc1F` (stereo not drawn), -5.75%.
As for `CC(C)c1nn(CC(=O)N2CCCCC2)c(=O)c2c1cnn2C(C)(C)C`, the figure is -10.1%; as for `CCc1nnc(Nc2cccc(C3CCN(S(=O)(=O)N(C)C)CC3)n2)s1`, -6.79%; as for `O=S1(=O)CCC(S(=O)(=O)c2cccc(S(=O)(=O)N3CCOCC3)c2)C1` (stereo not drawn), -8.35%.
As for `Clc1ccc(CN(CCN2CCOCC2)Cc2cccnc2)cc1Cl`, the figure is -5.5%; as for `N#Cc1c(F)cccc1N1CCCC(C(=O)Nc2nccs2)C1` (stereo not drawn), -19.5%; as for `O=C(CNC(=O)N1CCc2c([nH]c3ccc(Cl)cc23)C1)NCCCO`, -18.9%.
Turning to `C/C=C(\C)CN1CCCn2nc(CNC(=O)C3CCC3)cc2C1`, the cytotoxicity at 70.5 h was -11.6%.
With `CCOCC(=O)Nc1ncc(I)cc1C`, the cytotoxicity at 70.5 h was -7.61%.
Take `CN(C)CCCN(Cc1ccco1)Cc1ccnn1C1CCCCO1` (stereo not drawn): the cytotoxicity at 70.5 h was -8.64%.
As for `Cc1cccc(CN2CCC3(CC2)CN(c2cnn(C)c2)C(=O)CO3)n1`, the figure is 41.4%; as for `CCc1cc(NCC(O)CN2CCCCC2)n2ncnc2n1` (stereo not drawn), 1.39%.
Regarding `Cc1cnn(C2CN(CC(O)c3ccc4c(c3)OCCO4)C2)c1` (stereo not drawn), the cytotoxicity at 70.5 h is -3.93%.
With `CC(C)C(=O)N(C)CC(=O)Nc1ccc(Br)cn1`, the cytotoxicity at 70.5 h is -2.8%.
Then `NC(=O)CCS(=O)(=O)Cc1ccc(OCC(F)(F)F)cc1`, with -9.93%.
As for `COc1c(C)cnc(CNC(=O)CCc2nc3ccccc3[nH]2)c1C`, the figure is -3.14%; as for `Cc1cnc(N)c(C(=O)C2CCN(C(=O)c3cnc(C)cn3)CC2)c1`, -13%; as for `CN(C)CCN1CC(C(=O)N2CCC(c3nccn3C)CC2)CC1=O` (stereo not drawn), 6.94%.
Then `NC(=O)c1cccc(CCNCc2cccs2)c1`, with -3.84%; and `O=C(COc1cccnc1)NCc1nncn1C1CCCCC1`, with -5.77%; and `Cc1cc(NCc2cc(C)oc2C(F)(F)F)n2nc(C)cc2n1`, with -2.81%.
Consider `CCCc1ccc(CN2CCN(C(=O)NCC)[C@H]3CS(=O)(=O)C[C@H]32)o1`, for which the cytotoxicity at 70.5 h is -15.3%.
Then `CC(NC(=O)CNCCn1cccn1)c1ccc2c(c1)CCCC2` (stereo not drawn), with -4.4%.
Turning to `COc1cc(C(=O)NCc2cc(N3CCOCC3)ncn2)ccn1`, the cytotoxicity at 70.5 h stood at 20.4%.
As to `Oc1cccc(CN2C[C@H]3CC[C@@H]2CN(Cc2ccc(F)cc2)C3)c1`, the cytotoxicity at 70.5 h was -1.41%.
On to `CC(=O)NCCNCc1cn(CCN2CCSCC2)nc1C`, for which the cytotoxicity at 70.5 h was -5.7%.
Then `C[C@H]1C(=O)NC[C@H]2CN(Cc3ccccc3)C[C@H]21`, with -2.5%.
Then `N#Cc1cc(NS(=O)(=O)c2cc(C(=O)O)cc(Cl)c2Cl)ccc1F`, with 0.738%; and `CCOc1ncccc1C(=O)N1CCCC(c2nncn2C)C1` (stereo not drawn), with -3.42%; and `Cc1nccc(C2CN(Cc3cc[nH]n3)CCO2)n1` (stereo not drawn), with -15.2%.
As for `CN(Cc1nnc(C2CC2)n1C)C1CCN(Cc2ccncc2)C1` (stereo not drawn), the figure is -2.37%.
Regarding `Cc1csc(C(Cc2ccsc2)NC(=O)Cn2cccnc2=O)n1` (stereo not drawn), the cytotoxicity at 70.5 h is 14.5%.
For `CC(C)c1nc(CN2CCOCC2)cs1`, the cytotoxicity at 70.5 h stood at 7.98%.
Then `Cc1nn(C)c(N(C)C)c1CNCC(O)COc1ccc(F)cc1` (stereo not drawn), with 2.45%; and `CC(C)CNC(=O)CNc1c(NCc2ccncc2)c(=O)c1=O`, with 4.58%; and `CC(O)CNC(=O)NCc1ccc(N2CCNC(=O)C2)cc1` (stereo not drawn), with 2.26%.
Then `NC(=O)C(c1ccc(F)cc1)N1CCN(CCO)CC1` (stereo not drawn), with -6.75%.
As for `CCOCCn1c(=O)n(Cc2ccccc2F)c2cc(C(=O)O)cnc21`, the figure is 11.9%; as for `Cc1ccc(S(=O)(=O)NC[C@H]2OC[C@@H](NCc3ccncc3)[C@@H]2O)cc1`, -8.05%.
In the case of `O=C([C@H]1C[C@H]2OCC[C@H]2N(CC2CC2)C1)N1CCCC1`, the cytotoxicity at 70.5 h was determined as 5.6%.
Turning to `CC(C)Oc1ccc(C(=O)N2CC[C@H](O)[C@@H](n3ccnc3)CC2)cc1`, the cytotoxicity at 70.5 h came out at 18.5%.
Regarding `Cc1noc(C)c1CN1CCCC2(C1)CN(c1nccs1)CCO2` (stereo not drawn), the cytotoxicity at 70.5 h was -2.38%.
For the molecule `CC(C)N1CCCN(c2nc(-c3cccnc3)nc3c2cnn3C)CC1`, the cytotoxicity at 70.5 h is 36.6%.
With `COc1cc(F)ccc1-c1nc2c([nH]1)c(C1CC1)nn2C`, the cytotoxicity at 70.5 h is -10.9%.
Then `COc1ccc(F)c(F)c1CN1CCN(CC(C)C)C(=O)C1C` (stereo not drawn), with 25%; and `O=c1ccc2c(n1Cc1cccnc1)CCN(CC1CCOC1)CC2` (stereo not drawn), with -4.17%; and `Cn1ccc(NC(=O)CN2C[C@H]3CC[C@@H]2CN(S(C)(=O)=O)C3)n1`, with 0.433%.
Then `CC(C)CCC(=O)N1CCN(C(=O)c2ccc(-n3cccn3)cc2)CC1`, with -3.97%.
Then `O=C(CSCc1ccncc1)N(Cc1ccsc1)C1CC1`, with 0.347%; and `COc1cc2c(cc1OC)S(=O)(=O)N(Cc1ccccc1)C2=O`, with -14.6%.
For `CN(C)C(=O)CN1C[C@@H]2CC[C@H](C1)N(C(=O)CCn1cncn1)C2`, the cytotoxicity at 70.5 h is -12.6%.
As for `Cc1nc(C(Cc2ccsc2)NC(=O)CCN2CCOCC2)sc1C` (stereo not drawn), the figure is -7.23%.
As for `CCn1ccc(CN(C)C(=O)CSc2nnc(N)s2)n1`, the cytotoxicity at 70.5 h is -2.09%.
As for `CN(C)CC(=O)N1CC2(CCN(C(=O)Nc3ccccc3)C2)C1`, the figure is 22.9%; as for `COc1cc(OC)c(CNC(=O)NCC(=O)N(C)C)c(OC)c1`, 1.38%.
`CC(NC(=O)CCN1CCOC1=O)(c1ccccc1)c1ccccc1`: the cytotoxicity at 70.5 h was determined as 0.0243%.
For `COCCCN1CCCC12CCN(c1ncccn1)CC2`, the cytotoxicity at 70.5 h was -5.24%.
In the case of `O=C(O)c1csc(S(=O)(=O)N2CCCc3cccc(OC(F)F)c32)c1`, the cytotoxicity at 70.5 h is -5.21%.
Take `O=C(CCc1ccc(-c2ccccc2)[nH]1)N1CCCC(n2ccnc2)C1` (stereo not drawn): the cytotoxicity at 70.5 h is -1.63%.
With `Fc1ccc(CNCc2cc(Br)c3c(c2)OCO3)cc1`, the cytotoxicity at 70.5 h amounted to 7.59%.
In the case of `CCN(Cc1ccc(Cl)c(Cl)c1)C(=O)CCn1cncn1`, the cytotoxicity at 70.5 h was -10.7%.
Then `CCOCCCNCc1cc2c(C)cc(C)cc2n2c(=O)n(C)nc12`, with -0.158%; and `O=c1[nH]c(CN(Cc2ccco2)C2CCCC2)nc2ccccc12`, with 5.19%.
Then `CCOC(=O)CNC(=O)N1CCc2onc(-c3ccc(Cl)cc3)c2C1`, with -16.3%; and `Cc1cccnc1C(=O)N1CCCC(Cc2cncc3ccccc23)C1` (stereo not drawn), with -3.08%.
Then `CCS(=O)(=O)N1CCCC2(CCCC(=O)N2C)C1` (stereo not drawn), with -9.96%.
For `Cc1ccc(-n2ccc3nc(N4CCCC4)ncc3c2=O)cc1C`, the cytotoxicity at 70.5 h stood at 9.54%.
As for `CN(C)CCN1CC[C@@H]2[C@@H]1CCN2C(=O)c1cccc(Cl)c1`, the figure is -13.9%; as for `CCc1nc(C)sc1CN1CCc2[nH]nc(-c3ccc(F)c(F)c3)c2C1`, -5.32%; as for `Cc1cnc(CCN(C)C(=O)c2cccc(C)c2O)s1`, -5.87%.
Then `c1ccc2c(c1)CC(N1CCCC(NCc3cccc4nonc34)C1)C2` (stereo not drawn), with -9.28%; and `CC(C)c1ncc2c(n1)CN(Cc1nnc(Cc3ccccc3)o1)CC2`, with -5.27%; and `CCCOCCN1CCN(c2ncnc3[nH]ccc23)CC1`, with 1.69%.
As for `Cc1nc2ccccn2c1CN1C[C@@H](CN(C)CCO)[C@@H](CO)C1`, the figure is 5.92%; as for `CCC1CN(CC(=O)NCCN(CC)CC)c2ccccc2S1` (stereo not drawn), -6.69%; as for `Cc1noc(C)c1C(=O)N[C@@H]1CC[C@@H](Oc2ccccc2)[C@@H]1O`, -2.95%.
In the case of `N#CCCN(CC1CCCO1)C(=O)c1ccc2nonc2c1` (stereo not drawn), the cytotoxicity at 70.5 h was determined as 0.813%.
Take `CCn1nc(C(C)C)cc1C(=O)NCCCOC`: the cytotoxicity at 70.5 h is -4.05%.
Take `OC(COCc1ccccc1Cl)CN1CCC(c2ccn[nH]2)CC1` (stereo not drawn): the cytotoxicity at 70.5 h turned out to be 1.38%.
For the molecule `O=C(C1CC1)N1CCC2(CCN2Cc2ccc(F)cc2)C1` (stereo not drawn), the cytotoxicity at 70.5 h is -0.516%.
Then `O=C(CCn1ccccc1=O)Nc1ccc(F)c(Cl)c1`, with -11.7%.
Then `c1ncn(CC2CCCN(Cc3nnc(C4CC4)o3)C2)n1` (stereo not drawn), with 11.5%; and `O=C(CN1CCc2c(ncn2C2CC2)C1)NC1CCOCC1`, with -10.3%; and `Cc1noc(C)c1CCC(=O)N1CCCC(n2cccn2)C1` (stereo not drawn), with -0.943%.
As for `O=C(c1cccs1)N1CC[C@@H]2CN(C3CCOCC3)CCO[C@@H]2C1`, the figure is -6.31%.
For the molecule `COc1cc(F)ccc1N(C)Cc1ccccn1`, the cytotoxicity at 70.5 h was -1.59%.
As for `CC(=O)N[C@@H]1CN(Cc2ccccc2-n2nc(C)cc2C)C[C@H]1C(C)C`, the figure is -7.15%.
Then `COCC(=O)NCC1CCCN(Cc2cc3ccccc3[nH]2)C1` (stereo not drawn), with -13.5%.
Then `Cc1nc(CN2CCc3ccc(S(N)(=O)=O)cc32)oc1C`, with 0.0206%.
On to `Cc1noc(C)c1C(=O)N1C[C@@H]2COC[C@]2(COc2ccccn2)C1`, for which the cytotoxicity at 70.5 h came out at 10.4%.
For the molecule `CN(C)CCN1CCCC12CCCN(Cc1ccoc1)C2` (stereo not drawn), the cytotoxicity at 70.5 h came out at 13.7%.
Then `N#Cc1c(N)nc2c(c1-c1c[nH]nc1C1CCCCC1)CC(N)CC2` (stereo not drawn), with 22.4%; and `CN(Cc1cncnc1)[C@@H]1CN(C(=O)C2CC2)[C@@H]2CCCO[C@H]12`, with -3.07%; and `CN(C)C(=O)c1cccnc1SCc1ccccc1C#N`, with -4.31%.
In the case of `CCc1nc(CN2CCCN(c3ncnc4ccccc34)CC2)no1`, the cytotoxicity at 70.5 h came to 40.8%.
As for `COc1ccc(C(=O)NCC(C)(O)CCc2ccccc2)cc1` (stereo not drawn), the cytotoxicity at 70.5 h worked out at 3.78%.
